Reference: patent publication US6300471A, “FSH-releasing peptides” (Board of Supervisors of Louisiana State University and …, priority 1998, dated 2001)
“Also recorded” adds a separate entry of the source. Where two headings read alike, the source gives them in different places. Where a SMILES comes first, the peptide text is derived from it. [ ]: non-standard residue; d: D form. pGlu = O=C1CC[C@@H](C(=O)O)N1

Experiments:
[1] = test system: hemi-anterior pituitaries of adult male rats; assay: FSH release in vitro from incubated hemi-anterior pituitaries (RIA of medium); type: cell-based, rat; conditions: for FSH: n = 6
Procedure: (§1) After acclimatization for 5 or more days in the vivarium, male rats were killed by decapitation. Following removal of the posterior lobe, the anterior pituitary (AP) was bisected longitudinally, and each AP was incubated in a tube containing 0.5 ml Krebs-Ringer bicarbonate (5 mM ascorbic acid; pH 7.4) buffer (KRB) in an atmosphere of 95% O2 /5% CO2 in a Dubnoff shaker (50 cycles per min) for a period of 60 min. Following this pre-incubation period, the APs were incubated for 3 hr in fresh KRB buffer alone (control), or in KRB containing one of various concentrations of synthetic mammalian (m)-LHRH, l-LHRH-III, l-LHRH-I, chicken (c)-LHRH-II, or salmon (s)-LHRH. The medium was then aspirated, and was stored frozen at -20° C. until radio-immunoassays (RIA) for FSH and LH were conducted. FSH and LH were measured using kits supplied by the National Institute of Arthritis Digestive Diabetes and Kidney Disease; hormone values were expressed in terms of NIH-rFSH-RP-2 and NIH-rLH-RP-3 standards. The experiments were repeated twice. The inter- and intra-assay coefficients of variation for FSH assays were 7.5% and 5.2%, respectively; and were 6.5% and 4.8% for LH assays.

rats = conditions: Yu et al., 1990; cited from earlier work
[2] = test system: hemi-anterior pituitaries of adult male rats; assay: LH release in vitro from incubated hemi-anterior pituitaries (RIA of medium); type: cell-based, rat; conditions: for LH: n = 6
Procedure: as §1

[3] = test system: ovariectomized, estrogen- and progesterone-blocked female rats; assay: LH release in vivo after intravenous injection; set-up: species or system rat; conditions: for Change in LH from baseline, 10 minutes post-injection: saline control -0.070 ± 0.122
Procedure: (§2) Female rats were ovariectomized under anesthesia with isoflurane 4 weeks prior to the in vivo experiments. Three days before blood sampling, each ovariectomized rat was injected subcutaneously with 50 μg estradiol benzoate (Sigma Chemical Co., St. Louis, Mo.) dissolved in 0.1 ml sesame oil, and 25 mg progesterone (Eli Lilly, Indianapolis, Ind.) dissolved in 0.5 ml sesame oil. One day prior to testing, each animal was implanted with a jugular-atrial catheter. On the morning of testing, polyethylene tubing (PE-50) was connected to the distal end of the jugular-atrial catheter on the rat's dorsum to facilitate blood sampling and intravenous injection. Animals were acclimatized one hour before initial blood samples were taken. Heparinized blood samples ([…]) were collected just before, and at 10, 30, and 60 minutes after injection of 0.5 ml isotonic saline or l-LHRH-III (10 or 100 pmole) in 0.5 ml isotonic saline. After removal of each blood sample, an equal volume of isotonic saline was administered to maintain blood volume.

[4] = test system: Petromyzon marinus (lamprey) ovaries; conditions: Sower et al., 1993; cited from earlier work
[5] = test system: ovariectomized, estrogen- and progesterone-blocked female rats; assay: FSH release in vivo after intravenous injection; set-up: species or system rat; conditions: for Change in FSH from baseline, 10 minutes post-injection: saline control -3.85 ± 0.82; for selectivity for FSH release in vivo, result in words: screen of known LHRH's and LHRH analogs, unpublished data
Procedure: as §2

[6] = Table 2, 10^-5 M, 3 hr incubation, KRB control 97.7 ± 20.4
[7] = Table 2, 10^-6 M, 3 hr incubation, KRB control 97.7 ± 20.4
[8] = Table 3, 10^-5 M, 3 hr incubation, KRB control 139.3 ± 16.9
[9] = Table 3, 10^-6 M, 3 hr incubation, KRB control 139.3 ± 16.9
[10] = Table 4 experiment, 10^-6 M, KRB control 157.5 ± 13.2
[11] = Table 4 experiment, 10^-7 M, KRB control 157.5 ± 13.2
[12] = Table 4 experiment, 10^-8 M, KRB control 157.5 ± 13.2
[13] = Table 5 experiment, 10^-6 M, KRB control 149.3 ± 17.0
[14] = Table 5 experiment, 10^-7 M, KRB control 149.3 ± 17.0
[15] = Table 5 experiment, 10^-8 M, KRB control 149.3 ± 17.0

CC(C)C[C@H](NC(=O)[C@H](CO)NC(=O)[C@H](Cc1ccc(O)cc1)NC(=O)[C@H](Cc1c[nH]cn1)NC(=O)[C@@H]1CCC(=O)N1)C(=O)N[C@@H](CCC(=O)O)C(=O)N[C@@H](Cc1c[nH]c2ccccc12)C(=O)N[C@@H](CCCCN)C(=O)N1CCC[C@H]1C(=O)NCC(N)=O [l-LHRH-I, pGlu-His-Tyr-Ser-Leu-Glu-Trp-Lys-Pro-Gly-NH2] ([pGlu]HYSLEWKPG-NH2)
FSH release in vitro, result in words [1]: minimal potency to release either FSH or LH; also recorded: small but statistically significant release of FSH at a concentration of 10^-5 M
FSH [1, 6]: 178.2 ± 17.0 ng/mL
FSH [1, 7]: 164.0 ± 29.3 ng/mL
activity in releasing FSH or LH in rats (rats): relatively low activity in releasing either FSH or LH
LH release in vitro, result in words [2]: minimal potency to release either FSH or LH; also recorded: inactive at the two concentrations tested
LH [2, 8]: 120.4 ± 8.1 ng/mL
LH [2, 9]: 134.1 ± 23.2 ng/mL

NCCCC[C@H](NC(=O)[C@H](Cc1c[nH]c2ccccc12)NC(=O)[C@H](CC(=O)O)NC(=O)[C@H](Cc1c[nH]cn1)NC(=O)[C@H](CO)NC(=O)[C@H](Cc1c[nH]c2ccccc12)NC(=O)[C@H](Cc1c[nH]cn1)NC(=O)[C@@H]1CCC(=O)N1)C(=O)N1CCC[C@H]1C(=O)NCC(N)=O [l-LHRH-III, pGlu-His-Trp-Ser-His-Asp-Trp-Lys-Pro-Gly-NH2]
Change in LH from baseline, 10 minutes post-injection ([3]; 10 pmole intravenous, n = 6): -0.022 ± 0.078 ng/mL
plasma LH after injection versus saline control, result in words ([3]; 10 pmole or 100 pmole intravenous, 10, 30, 60 minutes): no significant increase in LH
Change in LH from baseline, 10 minutes post-injection ([3]; 100 pmole intravenous, n = 7): 0.097 ± 0.077 ng/mL
FSH release in vitro, result in words [1]: approximately equipotent toward releasing FSH; also recorded: caused FSH release in a dose-related fashion
FSH ([1]; Table 2, 10^-4 M, 3 hr incubation, KRB control 97.7 ± 20.4): 368.6 ± 40.9 ng/mL
FSH [1, 6]: 283.0 ± 60.8 ng/mL
FSH [1, 7]: 278.2 ± 40.9 ng/mL
FSH ([1]; Table 2, 10^-7 M, 3 hr incubation, KRB control 97.7 ± 20.4): 213.0 ± 17.9 ng/mL
FSH ([1]; Table 2, 10^-8 M, 3 hr incubation, KRB control 97.7 ± 20.4): 255.7 ± 42.4 ng/mL
FSH ([1]; Table 2, 10^-9 M, 3 hr incubation, KRB control 97.7 ± 20.4): 228.3 ± 52.5 ng/mL
MEC for statistically significant FSH release relative to c-LHRH-II ([1]; Table 4 experiment): two orders of magnitude lower
FSH [1, 10]: 215.0 ± 38.0 ng/mL
FSH [1, 11]: 203.2 ± 16.4 ng/mL
FSH [1, 12]: 249.3 ± 31.3 ng/mL
FSH ([1]; Table 4 experiment, 10^-9 M, KRB control 157.5 ± 13.2): 196.3 ± 21.2 ng/mL
minimal effective concentration (MEC) for FSH release ([1]; lowest concentration tested 10^-9 M): ≤ 10^-9 M
concentration of maximal effect on FSH release ([1]; release levelled off through 10^-4 M): about 10^-6 M
LH ([2]; Table 3, 10^-4 M, 3 hr incubation, KRB control 139.3 ± 16.9): 236.6 ± 19.3 ng/mL
LH [2, 8]: 202.9 ± 31.2 ng/mL
LH [2, 9]: 233.6 ± 33.8 ng/mL
LH ([2]; Table 3, 10^-7 M, 3 hr incubation, KRB control 139.3 ± 16.9): 179.9 ± 28.4 ng/mL
LH ([2]; Table 3, 10^-8 M, 3 hr incubation, KRB control 139.3 ± 16.9): 165.7 ± 26.6 ng/mL
LH ([2]; Table 3, 10^-9 M, 3 hr incubation, KRB control 139.3 ± 16.9): 171.8 ± 27.3 ng/mL
LH [2, 13]: 176.0 ± 9.3 ng/mL
LH [2, 14]: 182.7 ± 13.7 ng/mL
LH [2, 15]: 163.2 ± 6.5 ng/mL
LH ([2]; Table 5 experiment, 10^-9 M, KRB control 149.3 ± 17.0): 158.7 ± 10.2 ng/mL
estradiol and progesterone release from ovaries [4]: stimulated estradiol and progesterone release
release of FSH versus LH in vivo, result in words ([5]; 10 pmole and 100 pmole): caused the release of FSH in vivo, but not LH
plasma FSH after injection versus saline control, result in words ([5]; 10 pmole intravenous): highly significant increase in plasma FSH 10 minutes after injection, an effect that vanished by 30 minutes post-injection; also recorded: increase in FSH in vivo (P<0.01) within ten minutes
Change in FSH from baseline, 10 minutes post-injection ([5]; 10 pmole intravenous, n = 6): -0.75 ± 0.37 ng/mL
plasma FSH after injection versus saline control, result in words ([5]; 100 pmole intravenous): slightly greater effect at 10 minutes that was maintained 30 minutes after injection
Change in FSH from baseline, 10 minutes post-injection ([5]; 100 pmole intravenous, n = 7): -0.43 ± 0.61 ng/mL

CC(C)C[C@H](NC(=O)CNC(=O)[C@H](Cc1ccc(O)cc1)NC(=O)[C@H](CO)NC(=O)[C@H](Cc1c[nH]c2ccccc12)NC(=O)[C@H](Cc1c[nH]cn1)NC(=O)[C@@H]1CCC(=O)N1)C(=O)N[C@@H](CCCNC(=N)N)C(=O)N1CCC[C@H]1C(=O)NCC(N)=O [m-LHRH, pGlu-His-Trp-Ser-Tyr-Gly-Leu-Arg-Pro-Gly-NH2]
FSH release in vitro, result in words [1]: approximately equipotent toward releasing FSH; also recorded: equivalent levels of FSH release at the two concentrations tested
FSH ([1]; Table 2, 2 × 10^-8 M, 3 hr incubation, KRB control 97.7 ± 20.4): 257.5 ± 42.4 ng/mL
FSH ([1]; Table 2, 4 × 10^-9 M, 3 hr incubation, KRB control 97.7 ± 20.4): 218.5 ± 35.7 ng/mL
FSH ([1]; Table 4 experiment, 2 × 10^-8 M, KRB control 157.5 ± 13.2): 320.5 ± 42.6 ng/mL
LH release in vitro, result in words [2]: dose-related stimulatory effect on LH release, and was active at the lowest concentration tested (4×10^-9 M)
LH ([2]; Table 3, 2 × 10^-8 M, 3 hr incubation, KRB control 139.3 ± 16.9): 262.0 ± 36.1 ng/mL
LH ([2]; Table 3, 4 × 10^-9 M, 3 hr incubation, KRB control 139.3 ± 16.9): 183.1 ± 27.0 ng/mL
LH ([2]; Table 5 experiment, 2 × 10^-8 M, KRB control 149.3 ± 17.0): 214.7 ± 30.3 ng/mL

CC(C)C[C@H](NC(=O)[C@H](Cc1c[nH]c2ccccc12)NC(=O)CNC(=O)[C@H](Cc1ccc(O)cc1)NC(=O)[C@H](CO)NC(=O)[C@H](Cc1c[nH]c2ccccc12)NC(=O)[C@H](Cc1c[nH]cn1)NC(=O)[C@@H]1CCC(=O)N1)C(=O)N1CCC[C@H]1C(=O)NCC(N)=O [s-LHRH, pGlu-His-Trp-Ser-Tyr-Gly-Trp-Leu-Pro-Gly-NH2] ([pGlu]HWSYGWLPG-NH2)
FSH [1, 10]: 203.2 ± 39.2 ng/mL
FSH [1, 11]: 233.0 ± 37.4 ng/mL
FSH release in vitro, result in words ([1]; listed as Salmon (s)-LHRH): stimulated the release of both FSH and LH
FSH release in vitro, result in words ([1]; listed as Salmon LHRH): low potency, and lacked specificity for FSH release
LH release in vitro, result in words [2]: stimulated the release of both FSH and LH
LH [2, 13]: 186.2 ± 13.6 ng/mL
LH [2, 14]: 230.8 ± 38.8 ng/mL

NC(=O)CNC(=O)[C@@H]1CCCN1C(=O)[C@H](Cc1ccc(O)cc1)NC(=O)[C@H](Cc1c[nH]c2ccccc12)NC(=O)CNC(=O)[C@H](Cc1c[nH]cn1)NC(=O)[C@H](CO)NC(=O)[C@H](Cc1c[nH]c2ccccc12)NC(=O)[C@H](Cc1c[nH]cn1)NC(=O)[C@@H]1CCC(=O)N1 [c-LHRH-II, pGlu-His-Trp-Ser-His-G1y-Trp-Tyr-Pro-Gly-NH2] ([pGlu]HWSHGWYPG-NH2)
FSH release in vitro, result in words [1]: only significantly increased FSH release at the highest concentration tested (10^-6 M)
FSH [1, 10]: 263.7 ± 17.8 ng/mL
FSH [1, 11]: 209.3 ± 44.0 ng/mL
FSH [1, 12]: 123.7 ± 18.0 ng/mL
FSH release in vitro, result in words ([1]; listed as chicken LHRH-II): low potency, and lacked specificity for FSH release
LH release in vitro, result in words [2]: equivalent LH-releasing activity to that of m-LHRH
LH [2, 13]: 239.0 ± 31.7 ng/mL
LH [2, 14]: 216.3 ± 17.7 ng/mL
LH [2, 15]: 199.3 ± 13.6 ng/mL
LH release in vitro, result in words ([2]; listed as Chicken (c) LHRH-II): stimulated LH release at doses from 10^-8 to 10^-6 M
selectivity for FSH release in vivo, result in words [5]: slight selectivity for FSH release
selectivity for FSH release in vivo, result in words ([5]; listed as chicken (c) LHRH-II): slightly preferential FSH-releasing activity in vivo
